In experiment [1] the target is T1, C-1-tetrahydrofolate synthase, cytoplasmic (Homo sapiens) (UniProt P11586).
T1 sequence (whole entry): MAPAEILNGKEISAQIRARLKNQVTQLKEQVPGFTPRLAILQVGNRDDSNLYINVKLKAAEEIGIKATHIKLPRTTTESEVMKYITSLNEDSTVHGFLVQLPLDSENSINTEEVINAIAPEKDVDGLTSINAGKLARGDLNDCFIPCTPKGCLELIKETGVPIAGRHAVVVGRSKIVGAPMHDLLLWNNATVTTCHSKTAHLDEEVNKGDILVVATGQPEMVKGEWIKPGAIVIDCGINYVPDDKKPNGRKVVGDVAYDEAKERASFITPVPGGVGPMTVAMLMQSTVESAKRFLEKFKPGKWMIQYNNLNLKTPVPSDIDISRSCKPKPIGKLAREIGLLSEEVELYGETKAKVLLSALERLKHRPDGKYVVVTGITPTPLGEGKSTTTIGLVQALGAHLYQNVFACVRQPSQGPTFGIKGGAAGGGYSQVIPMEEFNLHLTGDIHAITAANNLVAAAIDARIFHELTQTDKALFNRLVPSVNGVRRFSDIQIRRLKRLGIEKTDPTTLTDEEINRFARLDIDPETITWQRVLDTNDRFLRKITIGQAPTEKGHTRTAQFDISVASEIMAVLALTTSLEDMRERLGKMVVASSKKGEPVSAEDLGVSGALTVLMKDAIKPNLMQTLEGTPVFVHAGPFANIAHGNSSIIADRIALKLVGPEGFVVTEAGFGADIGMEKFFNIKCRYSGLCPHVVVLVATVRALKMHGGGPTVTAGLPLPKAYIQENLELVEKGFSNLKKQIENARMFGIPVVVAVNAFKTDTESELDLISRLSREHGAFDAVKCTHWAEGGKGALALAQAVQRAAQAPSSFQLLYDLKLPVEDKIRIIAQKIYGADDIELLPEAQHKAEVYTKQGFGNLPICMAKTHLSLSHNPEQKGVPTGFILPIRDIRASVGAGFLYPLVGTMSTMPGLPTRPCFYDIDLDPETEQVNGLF
Put plainly: Percent inhibition was measured against 5,10-Methylene Tetrahydrofolate Cyclohydrolase (A,porcine liver) enzyme. The conditions noted are these: Sus scrofa; target entry is the homologue from another species; concentration not given here.

Experiment [2] has as its target Dihydrofolate reductase (Bos taurus) (UniProt P00376). The experiment can be described thus: Percent inhibition was measured against Dihydrofolate reductase (bovine liver) enzyme at 10E-4 M inhibitory concentration.
Experiment [3] concerns Columba livia. Put plainly: Percent inhibition was measured against glycinamide ribotide transformylase (pigeon liver) enzyme. The conditions noted are these: concentration not given here.
Experiment [4] is filed under the species Sus scrofa. Put plainly: Percent inhibition was measured against methionine synthetase (porcine kidney)enzyme. The conditions noted are these: concentration not given here.
Experiment [5] deals with Columba livia. The experiment can be described thus: Percent inhibition was measured against 5-amino-4-imidazolecarboxamide ribotide transformylase(pigeon liver) enzyme. The conditions noted are these: concentration not given here.
Experiment [6] is filed under the species Sus scrofa. The experiment can be described thus: Percent inhibition was measured against formyl tetrahydrofolate synthase (porcine liver) enzyme. Conditions: concentration not given here.
Experiment [7] is filed under the species Sus scrofa. The experiment can be described thus: Percent inhibition was measured against 5,10-Methylene Tetrahydrofolate Reductase (porcine kidney) enzyme. The conditions noted are these: concentration not given here.
For experiment [8], the target named is T1, C-1-tetrahydrofolate synthase, cytoplasmic (Homo sapiens). The experiment can be described thus: Percent inhibition was measured against 5,10-Methylene Tetrahydrofolate Cyclohydrolase (porcine liver) enzyme. Conditions: Sus scrofa; target entry is the homologue from another species; concentration not given here.
Experiment [9] has as its target Thymidylate synthase (Homo sapiens) (UniProt P04818). The experiment can be described thus: Percent inhibition was measured against Thymidylate synthase (calf thymus) enzyme. The conditions noted are these: concentration not given here.
Experiment [10] is filed under the species Sus scrofa. Put plainly: Percent inhibition was measured against Serine transhydroxymethylase (porcine liver) enzyme. at 10E-4 M inhibitory concentration.
For experiment [11], the species on record is Sus scrofa. The experiment can be described thus: Percent inhibition was measured against formyl tetrahydrofolate synthase (porcine liver) enzyme at 10E-4 M inhibitory concentration.
For experiment [12], the system named is formyltetrahydrofolate synthetase (Mus musculus). The experiment can be described thus: Percent inhibition was measured against formyl tetrahydrofolate synthase (L1210 tumor tissue) enzyme at 10E-4 M inhibitory concentration.
Experiment [13] in a line: Percent inhibition was measured against 5,10-Methylene Tetrahydrofolate Cyclohydrolase (L1210 tumor tissue) enzyme at 10E-6 M inhibitory concentration.
In experiment [14] the target is T1, C-1-tetrahydrofolate synthase, cytoplasmic (Homo sapiens). The experiment can be described thus: (§1) Percent inhibition was measured against 5,10-Methylene Tetrahydrofolate Cyclohydrolase (porcine liver) enzyme at 10E-4 M inhibitory concentration. Conditions: Sus scrofa; target entry is the homologue from another species.
Experiment [15] shares this target. The experiment can be described thus: Percent inhibition was measured against 5,10-Methylene Tetrahydrofolate Cyclohydrolase (L1210 tumor tissue) enzyme at 10E-4 M inhibitory concentration.
Experiment [16] is filed under the species Sus scrofa. Put plainly: Percent inhibition was measured against methionine synthetase (porcine kidney)enzyme at 10E-4 M inhibitory concentration.
The target in experiment [17] is T1, C-1-tetrahydrofolate synthase, cytoplasmic (Homo sapiens). The description is as §1. Conditions: Sus scrofa; target entry is the homologue from another species. This is another data set of the same source.
In experiment [18] the test system is Thymidylate synthase. Put plainly: Percent inhibition was measured against Thymidylate synthase (calf thymus) enzyme at 10E-4 M inhibitory concentration.
Experiment [19] has as its system Columba livia. Put plainly: Percent inhibition was measured against 5-amino-4-imidazolecarboxamide ribotide transformylase(pigeon liver) enzyme at 10E-4 M inhibitory concentration.
The subject of experiment [20] is Columba livia. The experiment can be described thus: Percent inhibition was measured against glycinamide ribotide transformylase (pigeon liver) enzyme at 10E-4 M inhibitory concentration.
The species entered for experiment [21] is Sus scrofa. Put plainly: Percent inhibition was measured against 5,10-Methylene Tetrahydrofolate Reductase (porcine kidney) enzyme at 10E-4 M inhibitory concentration.
For experiment [22], the target named is T1, C-1-tetrahydrofolate synthase, cytoplasmic (Homo sapiens). The experiment can be described thus: Percent inhibition was measured against 5,10-Methylene Tetrahydrofolate Cyclohydrolase (L1210 tumor tissue) enzyme at 10E-5 M inhibitory concentration.
Experiment [23] has as its system Columba livia. The experiment can be described thus: Percent inhibition was measured against 5-amino-4-imidazolecarboxamide ribotide transformylase(pigeon liver) enzyme at 10E-5 M inhibitory concentration.
Experiment [24] concerns the target T1, C-1-tetrahydrofolate synthase, cytoplasmic (Homo sapiens). Put plainly: Percent inhibition was measured against 5,10-Methylene Tetrahydrofolate Cyclohydrolase (porcine liver) enzyme at 10E-7 M inhibitory concentration. Conditions: Sus scrofa; target entry is the homologue from another species.
Experiment [25] shares this target. The experiment can be described thus: Percent inhibition was measured against 5,10-Methylene Tetrahydrofolate Cyclohydrolase (porcine liver) enzyme at 10E-6 M inhibitory concentration. The conditions noted are these: Sus scrofa; target entry is the homologue from another species.
Experiment [26] has the same target. Put plainly: Percent inhibition was measured against 5,10-Methylene Tetrahydrofolate Cyclohydrolase (L1210 tumor tissue) enzyme at 10E-6 M inhibitory concentration. The conditions noted are these: Sus scrofa.
The species entered for experiment [27] is Sus scrofa. The experiment can be described thus: Percent inhibition was measured against Serine transhydroxymethylase (porcine liver) enzyme at 10E-4 M inhibitory concentration.
The species entered for experiment [28] is Sus scrofa. The description is as §1.
The target of experiment [29] is T1, C-1-tetrahydrofolate synthase, cytoplasmic (Homo sapiens). The experiment can be described thus: Percent inhibition was measured against 5,10-Methylene Tetrahydrofolate Cyclohydrolase (porcine liver) enzyme at 10E-5 M inhibitory concentration. Conditions: Sus scrofa; target entry is the homologue from another species.

Several values for one entry are separate records, joined by “and”; a condition that tells them apart may be missing. Identical values can stand only once.

Sequence of Dihydrofolate reductase (Bos taurus) (P00376 whole entry, looked up): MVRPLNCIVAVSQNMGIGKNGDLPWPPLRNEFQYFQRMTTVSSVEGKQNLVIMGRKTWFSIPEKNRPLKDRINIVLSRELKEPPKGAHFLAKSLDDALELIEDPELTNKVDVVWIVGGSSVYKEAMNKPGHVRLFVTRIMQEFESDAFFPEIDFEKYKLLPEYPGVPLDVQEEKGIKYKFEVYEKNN
Sequence of Thymidylate synthase (Homo sapiens) (P04818 2-313 limits assumed): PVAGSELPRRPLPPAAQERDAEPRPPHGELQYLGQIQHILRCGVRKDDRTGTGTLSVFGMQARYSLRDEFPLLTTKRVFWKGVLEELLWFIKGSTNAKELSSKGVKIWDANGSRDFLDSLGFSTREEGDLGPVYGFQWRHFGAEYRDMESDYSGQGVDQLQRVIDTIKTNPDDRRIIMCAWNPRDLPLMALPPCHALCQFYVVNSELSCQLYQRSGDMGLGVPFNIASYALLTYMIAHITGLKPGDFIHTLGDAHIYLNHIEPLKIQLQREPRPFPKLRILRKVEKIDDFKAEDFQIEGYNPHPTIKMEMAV

Regarding `Nc1nc2c(c(=O)[nH]1)N1C=[N+](c3ccc(C(=O)NC(CCC(=O)O)C(=O)O)cc3)CC1CN2` (stereo not drawn), the inhibition in experiment [1] is 9%; in experiment [2], 15%; in experiment [3], 0%; in experiment [4] it was 22%; in [5], 19%; in experiment [6] it was 0%. Besides, the inhibition is 40% in experiment [7], 0% in experiment [8], 0% in experiment [9] and 10% in experiment [10].
Turning to `N=C1N(c2ccc(C(=O)NC(CCC(=O)O)C(=O)O)cc2)CC2CNc3nc(N)[nH]c(=O)c3N12` (stereo not drawn), the inhibition in experiment [11] turned out to be 21%; in [12] it was 12%; in experiment [13], 43%; in experiment [14] it was 24%; in experiment [15], 24%; in [16] it was 4%. The inhibition in experiment [2] was found to be 0%; in [17], 61%; in experiment [18] it was 0%; in [19], 13%; in experiment [20] it was 0%; in experiment [21] it was 0%. In experiment [10], this molecule yielded an inhibition of 30%.
For the molecule `Nc1nc2c(c(=O)[nH]1)N1C(=O)N(c3ccc(C(=O)NC(CCC(=O)O)C(=O)O)cc3)CC1CN2` (stereo not drawn), the inhibition in experiment [22] was determined as 51%; in experiment [11], 15%; in [12], 16%; in experiment [23], 0%; in experiment [24] it was 48%; in experiment [16], 2%. Moreover, the inhibition was 16% in [2]; 24% in experiment [25]; 25% in experiment [18]; 48% in experiment [26]; 40% in experiment [27]; 0% in experiment [20]. The inhibition in experiment [21] was found to be 41%.
Turning to `Nc1nc2c(c(=O)[nH]1)N1CCN(c3ccc(C(=O)NC(CCC(=O)O)C(=O)O)cc3)CC1CN2` (stereo not drawn), the inhibition was 0% in [11]; 3% and 0% in [14]; 10% in [16]; 13% in [2]; 16% in experiment [18]; 33% in experiment [19]. In addition, the inhibition in experiment [20] amounted to 0%; in [21], 20%; in experiment [10], 10%.
`Nc1nc2c(c(=O)[nH]1)N1C(=S)N(c3ccc(C(=O)NC(CCC(=O)O)C(=O)O)cc3)CC1CN2` (stereo not drawn): the inhibition in experiment [12] was determined as 13%; in experiment [23], 37%; in [28] it was 24%; in experiment [15], 12%; in experiment [16] it was 5%; in experiment [2] it was 30%. Besides, the inhibition came to 24% in [25]; 8% in experiment [18]; 50% in experiment [26]; 11% in experiment [20]; 55% in [21]; 27% in [29]. This molecule yielded an inhibition in experiment [10] of 0%.

Source of the values: ChEMBL document CHEMBL1122152, “Synthesis of pseudo cofactor analogues as potential inhibitors of the folate enzymes” (J Med Chem, 1982).
